Common to all, as to test: NCI anticancer screen, dose series, 48 h
The test system of test [1] is A498 renal.
Test [2] deals with SNB-19 CNS.
Test [3] has as its system NCI-H460 lung.
The test system of test [4] is HOP-62 NSCLC.
Test [5] relates to HL-60(TB) leukemia.
For test [6], the system named is K-562 leukemia.
In test [7] the test system is UO-31 renal.
The test system of test [8] is COLO 205 colon.
Test [9] concerns SW-620 colon.
For test [10], the system named is SK-MEL-5 melanoma.
Test [11] relates to RPMI-8226 leukemia.
In test [12] the test system is RXF 393 renal.
The subject of test [13] is OVCAR-4 ovarian.
Test [14] relates to HT29 colon.
Test [15] has as its system 786-0 renal.
Test [16] relates to SR leukemia.

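All cell lines were grown in 96-well plates and treated with compound for 48 hours. TGI: concentration producing complete growth inhibition.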 A value given as a limit tells only on which side of the number the result lay.

As for `OC12c3ccccc3C1CCCCCC21OCCCO1` (stereo not given), the TGI in test [1], in test [2], in test [3], in test [4], in [5] and in test [6] was over 100 µM in each case. Besides, the TGI in test [7], in test [8], in test [9], in test [10], in test [11] and in [12] was over 100 µM each time. Also, the TGI in test [13], in [14] and in [15] was over 100 µM each time.
Turning to `COc1cc2c(c(OC)c1OC)-c1ccc(SC)c(=O)cc1C(CC(=O)Oc1cccc(F)c1)C2` (stereo not given), the TGI in [2] is over 100 µM; in [3], 4.62 µM; in test [4] it was over 100 µM; in test [5] it was 0.6 µM; in test [6], over 52.4 µM; in test [7] it was over 100 µM. The TGI is 0.555 µM in [8]; over 100 µM in test [9]; over 55.8 µM in [10]; 6.19 µM in test [11]; over 100 µM in test [12]; 1.47 µM in test [16]. Moreover, the values for the TGI in test [13], in test [14] and in [15] were over 100 µM, 0.557 µM and over 100 µM, respectively.
Consider `O=C(c1ccco1)N(C(=S)N1CCN(c2ccccn2)CC1)c1ccccc1`, for which the TGI in test [2], in test [3], in [4], in [5], in test [6] and in test [7] was over 100 µM in each case. Also, the TGI in [8], in test [9], in [10], in test [11], in [12] and in test [16] was over 100 µM each time. Moreover, the TGI in test [13], in test [14] and in [15] was over 100 µM throughout.
Take `CC(=O)NC1=C(N)C(=O)c2ccccc2C1=O`: the TGI in test [1] is over 100 µM; in [2], over 100 µM; in test [3], 40.6 µM; in test [4], over 100 µM; in test [5], over 100 µM; in test [6], over 100 µM. Moreover, the TGI in [7] was over 100 µM; in test [8], 80.6 µM; in [9], 29.2 µM; in test [10], over 100 µM; in test [11], over 100 µM; in [12] it was over 100 µM. The TGI in [14] and in test [15] was over 100 µM each time.
Take `COC(=O)CCC(=O)N1CC1C` (stereo not given): the TGI in test [1], in test [2], in [3], in test [4], in [5] and in test [6] was over 100 µM throughout. Further, the TGI in test [7], in test [8], in test [9], in [10], in [11] and in [12] was over 100 µM in each case. For the same molecule, the TGI in [16], in test [13], in test [14] and in test [15] was over 100 µM each time.
As for `OC12CCC3(O)c4ccccc4C3C1c1ccccc12` (stereo not given), the TGI in test [2], in test [3], in test [4], in [5], in test [6] and in test [7] was over 100 µM each time. The TGI in test [8], in [9], in test [10], in [11], in test [12] and in [16] was over 100 µM throughout. Moreover, the TGI in test [13], in test [14] and in test [15] was over 100 µM in each case.
As to `CCn1c(CSc2nc(-c3ccccc3)c(-c3ccccc3)[nH]2)n[nH]c1=S`, the TGI in test [1], in [2], in test [3], in test [4], in test [5] and in [7] was over 100 µM in each case. Also, the TGI in test [8], in test [10], in [11], in test [16], in test [13] and in [14] was over 100 µM in each case. The molecule further registered a TGI in test [15] of over 100 µM.
As for `C=CCn1c(=N)/c(=C(\N)O)s/c1=C1/SC(=S)N(c2ccc(C)cc2)C1=O`, the TGI in [1], in test [2], in test [3], in test [5], in test [6] and in test [7] was over 100 µM throughout. The TGI in test [8], in test [9], in test [10], in test [11], in [16] and in [14] was over 100 µM in each case.
`COc1cc(C2c3cc4c(cc3[C@@H](N(C)c3ccc(N(C)C)cc3)C3COC(=O)C23)OCO4)cc(OC)c1O` (stereo not given in full): the TGI in test [1] was over 100 µM; in test [2] it was 42.6 µM; in test [3], 24.2 µM; in [4], over 100 µM; in [5], 7.84 µM; in test [6], 30.6 µM. Moreover, the TGI in [7] is 19.4 µM; in test [8], 4.23 µM; in [9], 21.8 µM; in test [10] it was 13.7 µM; in test [11] it was over 100 µM; in [16], 44.2 µM. The TGI was determined as 29.4 µM in [13], 2.62 µM in test [14] and 26.4 µM in test [15].
